Converted amounts (≈) assume the structure as drawn. Square brackets hold non-standard residues; d marks the D form. Peptide text beside a SMILES is read from it. * marks the point of attachment. Pro(4R-Me) = C[C@H]1CN[C@H](C(=O)O)C1; Oleoyl = CCCCCCCC/C=C\CCCCCCCC(=O)*; hSer = N[C@@H](CCO)C(=O)O
Legend:
[1] = system: Zika virus; assay: Antiviral activity against ZIKV Z16019 infected in A549 cells assessed as inhibition in viral replication at MOI of 1 incubated for 1 hr by plaque assay; format: functional, organism-based; details: Z16019, A549, 1 h
[2] = system: Influenza A virus; assay: Antiviral activity against Influenza A virus H1N1 subtype infected in MDCK cells assessed as inhibition of viral replication incubated for 48 hrs by CPE inhibition assay; format: functional, organism-based
[3] = system: Influenza A virus; assay: Antiviral activity against Influenza A virus H3N2 subtype infected in MDCK cells assessed as inhibition of viral replication incubated for 48 hrs by CPE inhibition assay; format: functional, organism-based
[4] = system: Influenza A virus; assay: Antiviral activity against Influenza A virus A/Puerto Rico/8/34(H1N1) strain infected in MDCK cells assessed as inhibition of viral infection incubated for 60 mins by CPE inhibition assay; format: functional, organism-based; details: 1 h
[5] = system: Hepatitis C virus; assay: Antiviral activity against HCV J8CC; format: functional, organism-based, Hepacivirus hominis
[6] = system: dengue virus type 2; assay: Antiviral activity against DENV2 assessed as inhibition of viral replication by DENV RNA-dependent RNA polymerase assay; format: functional, organism-based
[7] = system: dengue virus type 2; assay: Antiviral activity against DENV2 16681 infected in HEK293T/17 cells assessed as reduction in viral replication at MOI of 1 to 10 incubated for 24 hrs by standard plaque assay; format: functional, organism-based; details: Dengue virus, 16681, HEK293T/17, 24 h
[8] = system: Human immunodeficiency virus 1; assay: Antiviral activity against HIV-1 infected in SUP-T1 cells assessed as inhibition of viral replication at MOI of 1 treated for 48 hrs by luciferase assay; format: functional, organism-based; details: Human immunodeficiency virus 1, SUP-T1, 48 h
[9] = system: Influenza A virus; assay: Antiviral activity against Influenza A virus A/Puerto Rico/8/34(H1N1) strain infected in MDCK cells assessed as inhibition of viral infection by CPE inhibition assay; format: functional, organism-based
[10] = system: Zika virus; assay: Antiviral activity against ZIKV infected in A549 cells assessed as viral replication inhibition; format: functional, organism-based
[11] = system: dengue virus type 2; assay: Antiviral activity against DENV2 00st-22A infected in Vero cells assessed as reduction in viral replication at MOI of 0.5 incubated for 48 hrs by focus-forming assay; format: functional, organism-based

In the case of `O=C(C(=O)c1c[nH]c2ccccc12)c1c[nH]c2ccccc12`, the EC50 [1] is reported as 4.2 µM.

`CC[C@H]1O[C@@H]2O[C@H](/C=C/C=C/C=C/c3oc(=O)cc(OC/C=C(\C)C(=O)OC)c3C)[C@H](O)[C@]2(C)[C@@]1(C)O` gave an EC50 [2] of 3.5 µM and an EC50 [3] of 6.2 µM.

With `COC(=O)/C(C)=C/COc1cc(=O)oc(/C=C/C=C/C=C/[C@H]2O[C@H]3O[C@H](C)[C@](C)(O)[C@@]3(C)[C@H]2O)c1C` the EC50 [3] was 8.9 µM.

For `COc1cc(O)c2c(c1)C(=O)C1=C(C2=O)[C@H](O)[C@@H](O)[C@@](C)(O)C1`, the IC50 [4] was 8.35 µg/mL (≈ 26.1 µM).

`CC[C@@H]1N[C@@H]2N(C1=O)c1ccccc1[C@@]2(O)C[C@@H]1C(=O)NC(=C(C)C)c2nc3ccccc3c(=O)n21` showed an EC50 [5] of 129 µM.

For `CC(=O)OC/C=C(\C)[C@@H]1C(C)=C[C@@H]2CC[C@H](O)[C@H](C)[C@H]2[C@@H]1/C=C/C=C/C(=O)O`, the IC50 [6] was 13.6 µM.

Compound `C/C=C(\C)[C@@H]1C(C)=C[C@@H]2CC(=O)C[C@H](C)[C@H]2[C@@H]1/C=C/C=C/C(=O)O` has an IC50 [6] of 11.8 µM.

Compound `CC1(C)C(=O)N2c3ccccc3[C@@]3(C[C@H]4n5c(nc6ccccc6c5=O)C(=O)C(C)(C)[C@@]4(O)O3)[C@@H]2N1S(C)(=O)=O` has an EC50 [5] of 110 µM.

With `CC(C)[C@@H]1NC(=O)[C@@H](C[C@@]2(O)c3ccccc3N3C(=O)C(C)(C)N[C@@H]32)n2c1nc1ccccc1c2=O` the EC50 [7] was 4.73 µM.

`CC[C@H](C)[C@@H](O)C(=O)[C@H]1C2=COC(C)=CC2=CC(=O)[C@@]1(C)O` was tested, and the IC50 [8] was 0.5 µM.

`COc1cccc2oc3cc(C)c(O)c(CO)c3c(=O)c12` showed an IC50 [9] of 4.7 µM.

Work on `C=C(CC[C@@H](C)[C@H]1CC=C2C3=C(CC[C@@]21C)[C@@]1(C)CC[C@H](O)C[C@@H]1CC3=O)C(C)C` yielded an IC50 [8] of 3.5 µM.

Compound `COc1ccc2oc3cc(C)c(O)c(CO)c3c(=O)c2c1OC` has an IC50 [9] of 2.17 µM.

`C=C(C)C#CC1=C[C@@H]2O[C@@H](C(C)(C)O)C[C@]23O[C@@H]3[C@H]1O` gave an IC50 [8] of 16.1 µM.

`C[C@]1(O)CC2=C(C(=O)c3c(O)cc(O)cc3C2=O)[C@H](O)[C@H]1O` showed an IC50 [4] of 2.59 µg/mL (≈ 8.46 µM).

Compound `C=C1CCC[C@]2(C)[C@H]3COC(=O)[C@H]3CC[C@@]12O` has an IC50 [9] of 2.96 µg/mL.

Work on `CCCCCCCC/C=C\CCCCCCCC(=O)N[C@H](C(=O)N1C[C@H](C)C[C@H]1C(=O)N[C@H](C(=O)N[C@@H](CCOC(C)=O)C(=O)N[C@@H](C)C=O)C(C)C)[C@@H](C)O` (Oleoyl-T[Pro(4R-Me)]V[hSer](Ac)A-aldehyde) yielded an EC50 [1] of 5 µM and an IC50 [10] of 0.15 µM.

In the case of `COc1cc(O)c2c(c1)C(=O)C1=C(C[C@@H](O)[C@@](C)(O)C1)C2=O` [ALTERSOLANOL B], the IC50 [4] is reported as 7.82 µg/mL (≈ 25.7 µM).

Compound `C[C@H]1CCC/C=C/[C@@H]2C[C@H](O)C[C@H]2[C@H](O)/C=C/C(=O)O1` [BREFELDIN A] has an IC50 [11] of 0.0546 µM.

`CC[C@H](C)C(=O)[C@H]1C(=O)O[C@@]2(C)C(=O)C=C3C=C(C)OC=C3[C@H]12` [CHERMESINONE B] was tested, and the IC50 [4] was 0.8 µg/mL (≈ 2.53 µM).
